Target: T1, NA of influenza A/PuertoRico/8/1934 (H1N1) virus (Influenza A virus (A/Puerto Rico/8/1934(H1N1)), UniProt P03468)
T1 construct: native viral NA in allantoic fluid of infected embryonated chicken eggs (whole virus, not purified)
Assay: fluorescence NA inhibition assay with MU-NANA
Format: biochemical
Details: MU-NANA substrate (30 μl of 80 μM in 100 μl); 10 min preincubation, 30 min reaction, 37 °C; virus-containing allantoic fluid

T1 sequence (P03468 whole entry): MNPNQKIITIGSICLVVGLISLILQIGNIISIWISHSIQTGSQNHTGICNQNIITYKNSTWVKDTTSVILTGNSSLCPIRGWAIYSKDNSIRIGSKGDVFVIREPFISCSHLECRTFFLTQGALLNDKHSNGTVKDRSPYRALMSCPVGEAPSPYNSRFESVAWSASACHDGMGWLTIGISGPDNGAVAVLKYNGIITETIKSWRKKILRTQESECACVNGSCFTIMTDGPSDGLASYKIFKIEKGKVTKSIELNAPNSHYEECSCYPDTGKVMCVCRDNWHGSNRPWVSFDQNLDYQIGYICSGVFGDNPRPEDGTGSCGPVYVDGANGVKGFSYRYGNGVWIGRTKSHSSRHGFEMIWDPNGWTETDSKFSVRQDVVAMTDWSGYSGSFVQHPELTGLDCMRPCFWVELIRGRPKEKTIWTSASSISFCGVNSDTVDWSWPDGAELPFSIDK

Work on `O=C(/C=C/c1ccc(O)c(O)c1)O[C@@H]1C[C@](O)(C(=O)O)C[C@@H](O)[C@H]1O` [CHA, chlorogenic acid] yielded an IC50 of 22.1 ± 1.07 µM.
